Each structure is given as a SMILES string.

Assay [1] concerns Caenorhabditis elegans. The assay is described as follows: C. elegans L1 larvae dose-response, 5 day visual viability score (Examples 2 and 7). The note with it: day 5, Table 3; for 5 Day Visual Score V6: 0.3 μM (procedure of Example 2); for 5 Day Visual Score V5: 0.9 μM (procedure of Example 2); for 5 Day Visual Score V4: 2.6 μM (procedure of Example 2); for 5 Day Visual Score V3: 7.8 μM (procedure of Example 2); for 5 Day Visual Score V1: 70 μM (procedure of Example 2); for 5 Day Visual Score V2: 23.3 μM (procedure of Example 2). On the set-up: key: Dead: only stiff L1s (no movement); Dead (L4): worms are dead, but at a later larval stage; majority of worms are L1 (based on size); majority of worms are L2 (based on size); majority of worms are L3 (based on size); majority of worms are L4 (based on size); AD: majority of worms are adult; #AD: 5 adult worms or less; B!: sterile (0-25 progeny); B: low broodsize (25-100 progeny); ˜B: moderate broodsize (100-250 progeny); <: reduced broodsize (250-500 progeny); OK: no effect (˜1000+ progeny). Type of assay: in vivo. Here is the method: Caenorhabditis elegans adults were grown on Nematode Growth Medium (NGM) until they produced eggs, then the adults were removed.
The eggs were allowed to hatch, and the L1 larvae collected. See The Neniatode Caenorhabditis elegans (1988) Cold Spring Harbor Laboratory Press. Using a Matrix Programmable Pipette, the L1s were distributed into 96-well tissue culture plates, 20 L1 in 50 μl NGM per well. Antibiotic/Antimyotic was added to each well, and 1% by weight E. coli strain HB101. The subject anthelmintic compounds were stored at 5 mM in 100% DMSO. 0.7 μl of compounds 1-31 were added to the left-most column of wells to yield a final concentration of 70 μM in 1.4% DMSO, with 1.4% DMSO only as the control. The compounds were then subjected to 5 more 3-fold dilutions from left to right to yield 6 column concentrations of 70 μM, 23.3 μM, 7.8 μM, 2.6 μM, 0.9 μM, and 0.3 μM. Plates were stored in air-tight Rubbermaid plastic boxes at 20° C. The nematodes had cleared all control wells by day 4, and nematode viability was scored by visual examination under a 100× dissecting microscope on day 5. A visual viability scoring system was used as follows:
If several classes of worms exist in a well, then all classes are scored. If adults are present, then the brood score is also recorded. Thus, “L1/L2” would mean a mixture of L1's and L2's are present in the well. “L4/#AD/B” would mean that a mixture of L4's and adults are resent in the well. The “#AD” would mean that there are 6 or less adults, and the “B” would mean that there were 100 progeny or less.
Column VI has a compound concentration of 70 μM with sequential 3-fold dilutions reported in columns V2, V3, V4, V5, and V6, respectively, such that the V6 concentration was 0.3 μM.
(§1) The nematicidal activity of anthelmintic Compositions 48-118 were determined in accordance with the procedure outlined in Example 2.

Assay [2] relates to Caenorhabditis elegans. The assay is described as follows: HTS runs (initial and follow-up): mOD, % Run and visual score (Table 3). Type of assay: in vivo. On the set-up: key to Initial HTS Run Visual Score / Follow-up HTS Run Visual Score: Dead: only stiff L1s (no movement); Dead (L4): worms are dead, but at a later larval stage; majority of worms are L1 (based on size); majority of worms are L2 (based on size); majority of worms are L3 (based on size); majority of worms are L4 (based on size); AD: majority of worms are adult; #AD: 5 adult worms or less; B!: sterile (0-25 progeny); B: low broodsize (25-100 progeny); ˜B: moderate broodsize (100-250 progeny); <: reduced broodsize (250-500 progeny); OK: no effect (˜1000+ progeny). Here is the method: as §1

Regarding `Clc1cccc(CNc2cc(Oc3cccc(Cl)c3)ncn2)c1` [AKC 364], in assay [1], the “5 Day Visual Score V6” value was “OK (no effect (˜1000+ progeny))”, the “5 Day Visual Score V5” value was “OK (no effect (˜1000+ progeny))”, the “5 Day Visual Score V4” value is “< (reduced broodsize (250-500 progeny))” and the “5 Day Visual Score V3” value was “˜B (moderate broodsize (100-250 progeny))”. The “5 Day Visual Score V1” value in assay [1] is listed as “Dead(L2/L3)”. In addition, in assay [2], the “Follow-up HTS Run % Run” value was 108%, the “Follow-up HTS Run Visual Score” value is “L4/AD/B!”, the “Follow-up HTS Run mOD” value is listed as 146 mOD and the “Initial HTS Run % Run” value is 121%. In assay [2], the “Initial HTS Run Visual Score” value is recorded as 4AD/˜B and the “Initial HTS Run mOD” value is listed as 236 mOD.

Take `Fc1ccc(Oc2cc(NCc3ccccc3F)ncn2)cc1` [AKC 367]: in assay [1], the “5 Day Visual Score V6” value was “OK (no effect (˜1000+ progeny))”, the “5 Day Visual Score V5” value is “OK (no effect (˜1000+ progeny))”, the “5 Day Visual Score V4” value is listed as “< (reduced broodsize (250-500 progeny))” and the “5 Day Visual Score V3” value was “< (reduced broodsize (250-500 progeny))”. In assay [1], the “5 Day Visual Score V2” value was “< (reduced broodsize (250-500 progeny))” and the “5 Day Visual Score V1” value is on record as “L1”. Moreover, in assay [2], the “Follow-up HTS Run % Run” value was 91%, the “Follow-up HTS Run Visual Score” value is given as “B (low broodsize (25-100 progeny))”, the “Follow-up HTS Run mOD” value was 123 mOD and the “Initial HTS Run % Run” value is 123%. In assay [2], the “Initial HTS Run Visual Score” value is reported as 2AD/B and the “Initial HTS Run mOD” value turned out to be 239 mOD.

Regarding `Fc1ccc(Oc2cc(NCc3cc(F)cc(F)c3)ncn2)cc1` [AKC 369], in assay [1], the “5 Day Visual Score V6” value was “OK (no effect (˜1000+ progeny))”, the “5 Day Visual Score V5” value is given as “OK (no effect (˜1000+ progeny))”, the “5 Day Visual Score V4” value is recorded as “OK (no effect (˜1000+ progeny))” and the “5 Day Visual Score V3” value is reported as “< (reduced broodsize (250-500 progeny))”. Moreover, in assay [1], the “5 Day Visual Score V1” value is recorded as “Dead”. In addition, in assay [2], the “Follow-up HTS Run % Run” value amounted to 94%, the “Follow-up HTS Run Visual Score” value is given as “B (low broodsize (25-100 progeny))”, the “Follow-up HTS Run mOD” value amounted to 127 mOD and the “Initial HTS Run % Run” value came out at 115%. In addition, in assay [2], the “Initial HTS Run Visual Score” value was 1AD/B and the “Initial HTS Run mOD” value is 225 mOD.

`CC(C)(C)OC(=O)N1CCN(c2cc(Oc3ccc(F)cc3)ncn2)CC1` [AKC 373]: in assay [1], the “5 Day Visual Score V6” value is reported as “OK (no effect (˜1000+ progeny))”, the “5 Day Visual Score V5” value is “OK (no effect (˜1000+ progeny))”, the “5 Day Visual Score V4” value is “OK (no effect (˜1000+ progeny))” and the “5 Day Visual Score V1” value was “L4”. For the same compound, in assay [2], the “Follow-up HTS Run % Run” value is reported as 83%, the “Follow-up HTS Run Visual Score” value is reported as “B (low broodsize (25-100 progeny))”, the “Follow-up HTS Run mOD” value stood at 112 mOD and the “Initial HTS Run % Run” value is on record as 132%. In addition, the “Initial HTS Run mOD” value in assay [2] worked out at 257 mOD.

In the case of `CC(C)(C)OC(=O)N1CCN(c2cc(Oc3ccccc3Cl)ncn2)CC1` [AKC 374], in assay [1], the “5 Day Visual Score V6” value is recorded as “OK (no effect (˜1000+ progeny))”, the “5 Day Visual Score V5” value is given as “OK (no effect (˜1000+ progeny))”, the “5 Day Visual Score V4” value is “OK (no effect (˜1000+ progeny))” and the “5 Day Visual Score V3” value was “OK (no effect (˜1000+ progeny))”. In addition, the “5 Day Visual Score V1” value in assay [1] was “Dead(L2/L3)”. In assay [2], the “Follow-up HTS Run % Run” value was determined as 114%, the “Follow-up HTS Run mOD” value was 154 mOD, the “Initial HTS Run % Run” value was 139% and the “Initial HTS Run Visual Score” value is “L3-Dying”. Besides, in assay [2], the “Initial HTS Run mOD” value turned out to be 271 mOD.

Consider `Clc1cccc(Oc2cc(NCc3ccccc3Cl)ncn2)c1` [AKC 376], for which, in assay [1], the “5 Day Visual Score V6” value was “OK (no effect (˜1000+ progeny))”, the “5 Day Visual Score V5” value is listed as “OK (no effect (˜1000+ progeny))”, the “5 Day Visual Score V4” value is “OK (no effect (˜1000+ progeny))” and the “5 Day Visual Score V3” value is recorded as “OK (no effect (˜1000+ progeny))”. In assay [1], the “5 Day Visual Score V2” value was “OK (no effect (˜1000+ progeny))” and the “5 Day Visual Score V1” value is recorded as “L1”. In assay [2], the “Follow-up HTS Run % Run” value came out at 115%, the “Follow-up HTS Run Visual Score” value is listed as “L2/L3/1AD”, the “Follow-up HTS Run mOD” value came to 155 mOD and the “Initial HTS Run % Run” value stood at 131%. In assay [2], the “Initial HTS Run Visual Score” value turned out to be 2AD/B and the “Initial HTS Run mOD” value is 256 mOD.

With `NS(=O)(=O)c1cccc(NC(=O)CCN2CCC(c3cccc4[nH]ccc34)CC2)c1` [AKC 377], in assay [1], the “5 Day Visual Score V6” value is recorded as “OK (no effect (˜1000+ progeny))”, the “5 Day Visual Score V5” value is “OK (no effect (˜1000+ progeny))”, the “5 Day Visual Score V4” value is listed as “OK (no effect (˜1000+ progeny))” and the “5 Day Visual Score V3” value is on record as “OK (no effect (˜1000+ progeny))”. For the same compound, the “5 Day Visual Score V1” value in assay [1] was “L1”. Also, in assay [2], the “Follow-up HTS Run % Run” value was 109%, the “Follow-up HTS Run Visual Score” value is “L4/AD/B!-No P”, the “Follow-up HTS Run mOD” value amounted to 147 mOD and the “Initial HTS Run % Run” value is given as 113%. In addition, in assay [2], the “Initial HTS Run Visual Score” value is given as 3AD/B and the “Initial HTS Run mOD” value came out at 220 mOD.

Consider `FC(F)(F)c1cccc(CNc2cc(Oc3cccc(Cl)c3)ncn2)c1` [AKC 379], for which, in assay [1], the “5 Day Visual Score V6” value is given as “OK (no effect (˜1000+ progeny))”, the “5 Day Visual Score V5” value is on record as “OK (no effect (˜1000+ progeny))”, the “5 Day Visual Score V4” value is given as “OK (no effect (˜1000+ progeny))” and the “5 Day Visual Score V3” value is on record as “OK (no effect (˜1000+ progeny))”. Moreover, in assay [1], the “5 Day Visual Score V1” value is “Dead”. In assay [2], the “Follow-up HTS Run % Run” value worked out at 107%, the “Follow-up HTS Run Visual Score” value is listed as “L4/AD/B!”, the “Follow-up HTS Run mOD” value came to 144 mOD and the “Initial HTS Run % Run” value turned out to be 142%. Also, in assay [2], the “Initial HTS Run Visual Score” value is recorded as “Dead/1AD” and the “Initial HTS Run mOD” value is reported as 277 mOD.

On to `Fc1ccc(Oc2cc(NCc3cccc(C(F)(F)F)c3)ncn2)cc1` [AKC 380], for which, in assay [1], the “5 Day Visual Score V6” value is reported as “OK (no effect (˜1000+ progeny))”, the “5 Day Visual Score V5” value was “OK (no effect (˜1000+ progeny))”, the “5 Day Visual Score V4” value is “OK (no effect (˜1000+ progeny))” and the “5 Day Visual Score V3” value is “OK (no effect (˜1000+ progeny))”. Also, the “5 Day Visual Score V1” value in assay [1] is listed as “L1”. In assay [2], the “Follow-up HTS Run % Run” value was determined as 102%, the “Follow-up HTS Run Visual Score” value is given as “L4/AD/B!”, the “Follow-up HTS Run mOD” value was 138 mOD and the “Initial HTS Run % Run” value was found to be 129%. Further, in assay [2], the “Initial HTS Run Visual Score” value was “Dead” and the “Initial HTS Run mOD” value is listed as 251 mOD.

As to `Fc1ccccc1Oc1cc(NCc2cccc(C(F)(F)F)c2)ncn1` [AKC 381], in assay [1], the “5 Day Visual Score V6” value was “OK (no effect (˜1000+ progeny))”, the “5 Day Visual Score V5” value is on record as “OK (no effect (˜1000+ progeny))”, the “5 Day Visual Score V4” value was “OK (no effect (˜1000+ progeny))” and the “5 Day Visual Score V3” value is “< (reduced broodsize (250-500 progeny))”. Besides, in assay [1], the “5 Day Visual Score V2” value is recorded as “˜B (moderate broodsize (100-250 progeny))” and the “5 Day Visual Score V1” value is given as “L1”. In assay [2], the “Follow-up HTS Run % Run” value came out at 109%, the “Follow-up HTS Run Visual Score” value is recorded as “L4/AD/B!”, the “Follow-up HTS Run mOD” value is 147 mOD and the “Initial HTS Run % Run” value is 138%. In addition, in assay [2], the “Initial HTS Run Visual Score” value is recorded as “Dead/1AD/B!” and the “Initial HTS Run mOD” value is given as 270 mOD.

(Values after patent publication US20010049373A1, “Materials and methods for killing nematodes and nematode eggs” (priority 2000, published 2001).)
